Reference: US12378243B2, “Quinoline compounds as inhibitors of KRAS” (Incyte Corporation, priority 2021, dated 2025)

Experiments:
KRAS G12D = KRAS G12D (Homo sapiens, UniProt P01116, G12D); test: GDP-GTP exchange assay, KRAS G12D; type: biochemical; conditions: bodipy-loaded KRAS G12D 2.5 nM, GppNHp 500 uM, SOS1 150 nM; 4 hours pre-incubation, 2 hours incubation; read-out: G12D_exchange
Method: Inhibitors were serially diluted in DMSO and a volume of 0.1 μL was transferred to the wells of a black low volume 384-well plate. […] The exchange was initiated by the addition of a 5 μL/well volume containing 1 mM GppNHp and 300 nM SOS1 in assay buffer. […] The reaction plates were incubated at ambient temperature for 2 hours, a time estimated for complete GDP-GTP exchange in the absence of inhibitor.
Either GraphPad prism or Genedata Screener SmartFit was used to analyze the data. The IC50 values were derived by fitting the data to a four parameter logistic equation producing a sigmoidal dose-response curve with a variable Hill coefficient.
“NA” indicates IC50 not available.

KRAS G12V mutant = KRAS G12V mutant (Homo sapiens, UniProt P01116, G12V); test: GDP-GTP exchange assay, KRAS G12V; type: biochemical; conditions: bodipy loaded KRAS G12V 2.5 nM; 3 hours incubation after adding GppNHp-SOS1 mixture; read-out: G12V_exchange
Caco-2 cells = test: Caco2 assay (permeability, A-B); type: in vitro ADME; conditions: Table 3; Papp absorptive direction (A-B), test compound 50 μM, 120 minutes at 37° C.
Method: Caco-2 cells are grown at 37° C. in an atmosphere of 5% CO2 in DMEM growth medium supplemented with 10% (v/v) fetal bovine serum, 1% (v/v) nonessential amino acids, penicillin (100 U/mL), and streptomycin (100 μg/mL). Confluent cell monolayers are subcultured every 7 days or 4 days for Caco-2 by treatment with 0.05% trypsin containing […]. Caco-2 cells are seeded in 96-well Transwell plates. The seeding density for Caco-2 cells is 14,000 cells/well. DMEM growth medium is replaced every other day after seeding. Cell monolayers are used for transport assays between 22 and 25 days for Caco-2 cells.
Cell culture medium is removed and replaced with HBSS. To measure the TEER, the HBSS is added into the donor compartment (apical side) and receiver compartment (basolateral side). The TEER is measured by using a REMS Autosampler to ensure the integrity of the cell monolayers. Caco-2 cell monolayers with TEER values ≥300 Ω·cm^2 are used for transport experiments. To determine the Papp in the absorptive direction (A-B), solution of test compound (50 μM) in HBSS is added to the donor compartment (apical side), while HBSS solution with 4% BSA is added to the receiver compartment (basolateral side). The apical volume was 0.075 mL, and the basolateral volume is 0.25 mL. The incubation period is 120 minutes at 37° C. in an atmosphere of 5% CO2. At the end of the incubation period, samples from the donor and receiver sides are removed and an equal volume of acetonitrile is added for protein precipitation. The supernatants are collected after centrifugation (3000 rpm, Allegra X-14R Centrifuge from Beckman Coulter, Indianapolis, IN) for LCMS analysis. The permeability value is determined according to the equation:
[formula] • where the flux rate (F, mass/time) is calculated from the slope of cumulative amounts of compound of interest on the receiver side, SA is the surface area of the cell membrane, VD is the donor volume, and MD is the initial amount of the solution in the donor chamber.
The symbol “+” indicates a Caco-2 value of […], “++” indicates a Caco-2 value of >0.5 but ≤1; and “+++” indicates a Caco-2 value of >1. “NA” indicates IC50 not available.

KRAS G12V mutant, sequence (P01116 1-188 isoform P01116-2 G12V): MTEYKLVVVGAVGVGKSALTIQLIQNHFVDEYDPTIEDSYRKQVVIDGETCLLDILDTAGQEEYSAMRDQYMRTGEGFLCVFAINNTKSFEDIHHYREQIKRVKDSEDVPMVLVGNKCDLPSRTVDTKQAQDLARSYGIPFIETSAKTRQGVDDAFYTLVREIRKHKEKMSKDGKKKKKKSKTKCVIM
KRAS G12D, sequence (P01116 1-188 isoform P01116-2 G12D): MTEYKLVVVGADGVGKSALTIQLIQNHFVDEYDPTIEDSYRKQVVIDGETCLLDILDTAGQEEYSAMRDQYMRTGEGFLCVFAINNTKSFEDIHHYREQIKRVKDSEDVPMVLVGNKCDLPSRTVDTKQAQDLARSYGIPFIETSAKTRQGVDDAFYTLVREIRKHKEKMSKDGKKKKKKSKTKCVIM

| IC50 (KRAS G12D) | IC50 (KRAS G12V mutant) | Caco-2 (Caco-2 cells) | Structure (SMILES) |
| --- | --- | --- | --- |
| < 100 nM | < 100 nM | ++ (a Caco-2 value of >0.5 but ≤1) | Cc1cc2c(-n3cncn3)nc3c(F)c(-c4cc(O)cc5ccc(Cl)cc45)c(CCC#N)cc3c2n1[C@H]1[C@H]2CN[C@@H]1C2 [Example 1, 3-(1-((1R,4R,5S)-2-Azabicyclo[2.1.1]hexan-5-yl)-7-(7-chloro-3-hydroxynaphthalen-1-yl)-6-fluoro-2-methyl-4-(1H-1,2,4-triazol-1-yl)-1H-pyrrolo[3,2-c]quinolin-8-yl)propanenitrile] |
| < 100 nM | < 100 nM | + (a Caco-2 value of 50.5) | Cc1cc2c(O[C@@H](C)[C@@H]3CCCN3C)nc3c(F)c(-c4c[nH]c5c(F)cc(F)cc45)c(CCC#N)cc3c2n1[C@H]1[C@H]2CN[C@@H]1C2 [Example 2, 3-(1-((1R,4R,5S)-2-Azabicyclo[2.1.1]hexan-5-yl)-7-(5,7-difluoro-1H-indol-3-yl)-6-fluoro-2-methyl-4-((S)-1-((S)-1-methylpyrrolidin-2-yl)ethoxy)-1H-pyrrolo[3,2-c]quinolin-8-yl)propanenitrile] |
| < 100 nM | < 100 nM | + (a Caco-2 value of 50.5) | Cc1cc2c(-c3c(CCC#N)cc4c(nc(O[C@@H](C)[C@@H]5CCCN5C)c5cc(C)n([C@H]6[C@H]7CN[C@@H]6C7)c54)c3F)c[nH]c2cc1F [Example 3, 3-(1-((1R,4R,5S)-2-Azabicyclo[2.1.1]hexan-5-yl)-6-fluoro-7-(6-fluoro-5-methyl-1H-indol-3-yl)-2-methyl-4-((S)-1-((S)-1-methylpyrrolidin-2-yl)ethoxy)-1H-pyrrolo[3,2-c]quinolin-8-yl)propanenitrile] |
| < 100 nM | < 100 nM | + (a Caco-2 value of 50.5) | C[C@H](Oc1nc2c(F)c(-c3cccc(Cl)c3Cl)c(CCC#N)cc2c2c1cc(CCC(=O)N1CCC1)n2[C@H]1[C@H]2CN[C@@H]1C2)[C@@H]1CCCN1C [Example 4, 3-(2-(3-(Azetidin-1-yl)-3-oxopropyl)-1-((1R,4R,5S)-2-azabicyclo[2.1.1]hexan-5-yl)-7-(2,3-dichlorophenyl)-6-fluoro-4-((S)-1-((S)-1-methylpyrrolidin-2-yl)ethoxy)-1H-pyrrolo[3,2-c]quinolin-8-yl)propanenitrile] |
| < 100 nM | < 100 nM | + (a Caco-2 value of 50.5) | Cc1cc2c(nc(O[C@@H](C)[C@@H]3CCCN3C)c3cc(CN4CCOC4=O)n([C@H]4[C@H]5CN[C@@H]4C5)c32)c(F)c1-c1cc(O)cc2ccccc12 [Example 5, 3-((1-((1R,4R,5S)-2-Azabicyclo[2.1.1]hexan-5-yl)-6-fluoro-7-(3-hydroxynaphthalen-1-yl)-8-methyl-4-((S)-1-((S)-1-methylpyrrolidin-2-yl)ethoxy)-1H-pyrrolo[3,2-c]quinolin-2-yl)methyl)oxazolidin-2-one] |
| < 100 nM | < 100 nM | ++ (a Caco-2 value of >0.5 but ≤1) | Cc1cc2c(nc(O[C@@H](C)[C@@H]3CCCN3C)c3cc(C)n([C@H]4[C@H]5CN[C@@H]4C5)c32)c(F)c1-c1cccc2cccc(C#N)c12 [Example 6, 8-(1-((1R,4R,5S)-2-Azabicyclo[2.1.1]hexan-5-yl)-6-fluoro-2,8-dimethyl-4-((S)-1-((S)-1-methylpyrrolidin-2-yl)ethoxy)-1H-pyrrolo[3,2-c]quinolin-7-yl)-1-naphthonitrile] |
| < 100 nM | 100 to 1000 nM | ++ (a Caco-2 value of >0.5 but ≤1) | Cc1nc2c(F)c(-c3cccc4ccc(F)cc34)c(CCC#N)cc2c2c1cc(CN1CCN(C)CC1=O)n2[C@H]1[C@H]2CN[C@@H]1C2 [Example 15, 3-(1-((1R,4R,5S)-2-Azabicyclo[2.1.1]hexan-5-yl)-6-fluoro-7-(7-fluoronaphthalen-1-yl)-4-methyl-2-((4-methyl-2-oxopiperazin-1-yl)methyl)-1H-pyrrolo[3,2-c]quinolin-8-yl)propanenitrile] |
| < 100 nM | < 100 nM | + (a Caco-2 value of 50.5) | CCOc1nc2c(F)c(-c3cc(O)cc(Cl)c3Cl)c(CCC#N)cc2c2c1cc(CN1CCN(C(C)C)CC1=O)n2[C@H]1[C@H]2CN[C@@H]1C2 [Example 16, 3-(1-((1R,4R,5S)-2-azabicyclo[2.1.1]hexan-5-yl)-7-(2,3-dichloro-5-hydroxyphenyl)-4-ethoxy-6-fluoro-2-((4-isopropyl-2-oxopiperazin-1-yl)methyl)-1H-pyrrolo[3,2-c]quinolin-8-yl)propanenitrile] |
| < 100 nM | < 100 nM | + (a Caco-2 value of 50.5) | CN(C)C1(C)CN(c2nc3c(F)c(-c4cccc5ccc(F)cc45)c(CCC#N)cc3c3c2cc(CN2CCOCC2=O)n3[C@H]2[C@H]3CN[C@@H]2C3)C1 [Example 17, 3-(1-((1R,4R,5S)-2-Azabicyclo[2.1.1]hexan-5-yl)-4-(3-(dimethylamino)-3-methylazetidin-1-yl)-6-fluoro-7-(7-fluoronaphthalen-1-yl)-2-((3-oxomorpholino)methyl)-1H-pyrrolo[3,2-c]quinolin-8-yl)propanenitrile] |
| < 100 nM | < 100 nM | + (a Caco-2 value of 50.5) | CCOc1nc2c(F)c(-c3cc(O)cc4ccccc34)c(CCC#N)cc2c2c1cc(C(C)N1CCOCC1=O)n2[C@H]1[C@H]2CN[C@@H]1C2 (stereo partly drawn) [Example 18, 3-(1-((1R,4R,5S)-2-azabicyclo[2.1.1]hexan-5-yl)-4-ethoxy-6-fluoro-7-(3-hydroxynaphthalen-1-yl)-2-(1-(3-oxomorpholino)ethyl)-1H-pyrrolo[3,2-c]quinolin-8-yl)propanenitrile] |
| < 100 nM | < 100 nM | + (a Caco-2 value of 50.5) | C[C@H](Oc1nc2c(F)c(-c3cc(O)cc4ccccc34)c(CCC#N)cc2c2c1cc(-c1cccnc1)n2C1C2CNC1C2)[C@@H]1CCCN1C (stereo partly drawn) [Example 19, 3-(1-((endo)-2-Azabicyclo[2.1.1]hexan-5-yl)-6-fluoro-7-(3-hydroxynaphthalen-1-yl)-4-((S)-1-((S)-1-methylpyrrolidin-2-yl)ethoxy)-2-(pyridin-3-yl)-1H-pyrrolo[3,2-c]quinolin-8-yl)propanenitrile] |
| < 100 nM | < 100 nM | +++ (a Caco-2 value of >1) | CC(=O)N1CC[C@H](n2ncc3c(O[C@@H](C)[C@@H]4CCCN4C)nc4c(F)c(-c5cccc6cccc(C#N)c56)c(Cl)cc4c32)C[C@H]1CC#N [Example 25, 8-(1-((2S,4S)-1-acetyl-2-(cyanomethyl)piperidin-4-yl)-8-chloro-6-fluoro-4-((S)-1-((S)-1-methylpyrrolidin-2-yl)ethoxy)-1H-pyrazolo[4,3-c]quinolin-7-yl)-1-naphthonitrile] |
| < 100 nM | < 100 nM | + (a Caco-2 value of 50.5) | Cc1cc2c(-n3cncn3)nc3c(F)c(-c4cc(O)cc5ccc(F)cc45)c(CCC#N)cc3c2n1[C@H]1[C@H]2CN[C@@H]1C2 [Example 26, 3-(1-((1R,4R,5S)-2-Azabicyclo[2.1.1]hexan-5-yl)-6-fluoro-7-(7-fluoro-3-hydroxynaphthalen-1-yl)-2-methyl-4-(1H-1,2,4-triazol-1-yl)-1H-pyrrolo[3,2-c]quinolin-8-yl)propanenitrile] |
| < 100 nM | < 100 nM | + (a Caco-2 value of 50.5) | Cc1cc2c(O[C@@H](C)[C@@H]3CCCN3C)nc3c(F)c(-c4cccc5ccc(F)cc45)c(CCC#N)cc3c2n1[C@H]1[C@H]2CN[C@@H]1C2 [Example 27, 3-(1-((1R,4R,5S)-2-Azabicyclo[2.1.1]hexan-5-yl)-6-fluoro-7-(7-fluoronaphthalen-1-yl)-2-methyl-4-((S)-1-((S)-1-methylpyrrolidin-2-yl)ethoxy)-1H-pyrrolo[3,2-c]quinolin-8-yl)propanenitrile] |
